Read-outs that look alike come from different tables or passages of the source.
Legend:
[1] = cited from earlier work
[2] = tested on: small clot embolic strokes in rabbits; assay: rabbit small clot embolic stroke model (RSCEM), quantal analysis of behavior; format: in vivo
Text: The invention used a rabbit small clot embolic stroke model (RSCEM) that reproduces many facets of human AIS including a well-defined clinical endpoint. The RSCEM utilizes administration of a suspension of small blood clots to induce strokes, and behavioral deficits that can be measured quantitatively. Moreover, the RSCEM is useful to conduct studies testing the effects of single drugs or drug combinations such as a neuroprotective agent (e.g., NXY-059) plus a thrombolytic (Tenecteplase, Alteplase, Desmoteplase and the like). Since it is likely that a drug combination will be used for patient management it is important to determine whether there are any interactions (positive or negative) between the compounds when administered following embolic strokes.
Methods: Male New Zealand white rabbits were anesthetized using halothane (5% induction, 2% maintenance by facemask), the bifurcation of the right carotid artery was exposed and the external carotid was ligated just distal to the bifurcation, where a catheter was inserted into the common carotid and secured with ligatures. The incision was closed around the catheter with the distal ends left accessible outside the neck; the catheter was filled with heparinized saline and plugged with an injection cap. Rabbits were allowed to recover from anesthesia for a minimum of 3 h until they awoke and behaved normally.
For the RSCEM, microclots were prepared from blood drawn from a donor rabbit and allowed to clot at 37° C. All rabbits in the study received injections of the same sized microclots. For embolization, clot particles were rapidly injected through the carotid catheter and both the syringe and catheter were flushed with 5 ml of normal saline.
Treatment Regimens: (A) Dose-Response Curve: NXY-059 was administered IV at a dose of 0.1-100 mg/kg infused over 30 min beginning 1 hour following embolization. (B) Therapeutic Window: NXY-059 (100 mg/kg) was given beginning 1, 3 or 6 hours following embolization. (C) Tenecteplase Dosing: Tenecteplase was administered IV at a dose of 0.9 mg/kg as a bolus injection given over one minute was administered 1 or 6 hours following embolization. (D) Combination studies: NXY-059 was administered IV at a dose of 100 mg/kg infused over 30 min and Tenecteplase was administered IV at a dose of 0.9 mg/kg beginning 1 or 6 hours following embolization.
Quantal Dose-Response Analysis: For the RSCEM, a quantal dose-response data analysis technique was used. A wide range of lesion volumes is induced to generate both normal and abnormal animals. Using 3 or more different doses of microclots generated each quantal analysis curve. […] Each animal is rated as either normal or abnormal (including dead animals), and inter-rater variability is very low (<5%). […] With this simple rating system, the composite result for a group of animals is quite reproducible. The P50 values are then calculated. These parameters are measures of the amount of microclots (in mg) that produce neurologic dysfunction in 50% of a group of animals. A separate curve is generated for each treatment condition that was tested. The data were analyzed using the t-test, which included the Bonferroni correction where appropriate.
Using the RSCEM model as described above male New Zealand white rabbits weighing 2.2-2.6 Kg were anesthetized and a catheter was inserted into the common carotid artery through which microclots were injected. Briefly, the bifurcation of one carotid artery was exposed and the external carotid was ligated just distal to the bifurcation. A catheter was inserted into the common carotid and secured with ligatures. The incision was closed around the catheter so that the distal end was accessible outside the animal's neck. The catheter was then filled with heparinized saline and plugged with an injection cap. Rabbits were allowed to recover from anesthesia until they were awake and behaving normally. […]

[3] = tested on: spinal cord ischemia induced by temporary occlusion of the infrarenal aorta; assay: rabbit reversible spinal cord ischemia model (RSCIM); format: in vivo
Procedure: In a rabbit reversible spinal cord ischemia model (RSCIM). ABHS was administered (25 mg/kg) intravenously (i.v.) 5 or 30 min following the start of occlusion to groups of rabbits exposed to ischemia induced by temporary occlusion of the infrarenal aorta. The group P50 represents the duration of ischemia (min) associated with a 50% probability of resultant permanent paraplegia.

[4] = ABHS 25 mg/kg i.v., 5 min post-occlusion
[5] = ABHS 25 mg/kg, 60 min following embolization
[6] = ABHS 25 mg/kg, 180 min following embolization

Compound: tPA: thrombolytic, tissue plasminogen activator; FDA-approved treatment for acute ischemic stroke
- increase of hemorrhage rate ([1]; high dose of tPA 3.3 mg/kg): 52%
- increase of hemorrhage rate ([1]; low dose of tPA 0.9 mg/kg): 28%
- P50 ([2]; low-dose tPA 0.9 mg/kg alone, 60 min following embolization): 1.25 ± 0.25 mg
- P50 ([2]; tPA 3.3 mg/kg alone, 60 min after embolization (ABHS study)): 2.69 ± 0.19 mg
- P50 ([2]; tPA 3.3 mg/kg, 1 hour after embolization (CGA study)): 2.89 ± 0.29 mg
- P50 ([2]; tPA 3.3 mg/kg, 3 hours after embolization (CGA study)): 1.54 ± 0.27 mg

Compound: O=c1c(O)c(-c2ccc(O)c(O)c2)oc2cc(O)ccc12 [Fisetin, fisetin]
- P50 ([2]; Fisetin 50 mg/kg IV, 5 minutes following embolization): 2.18 ± 0.42 mg

Compound: O=c1cc(-c2ccccc2)oc2cc(O)c(O)c(O)c12 [Baicalein, 5,6,7 trihydroxyflavone]
- P50 ([2]; Baicalein 100 mg/kg SC, 5 minutes following embolization): 2.85 ± 0.64 mg

Compound: CC12CC3CC(C)(C1)CC(N)(C3)C2 [memantine]
- effect on efficacy of low-dose tPA ([2]; memantine with low-dose tPA (FIG. 8)): increases the efficacy of low-dose tPA: synergy

Compound: CC(C)(C)[N+]([O-])=Cc1ccc(S(=O)(=O)O)cc1S(=O)(=O)O.[Na].[Na] [NXY-059, disodium 2,4-disulfophenyl-N-tert-butylnitrone]
- P50 ([2]; NXY-059 100 mg/kg IV, 1 hour following embolization, measured 24 hours after embolization): 2.81 ± 0.46 mg
- P50 ([2]; NXY-059 100 mg/kg, 3 hours following embolization): 1.78 ± 0.42 mg
- increase of P50 over vehicle control ([2]; NXY-059 1-100 mg/kg administered following embolization): 100-134%
- effect on P50 (dose-response) ([2]; NXY-059 doses from 1-100 mg/kg, 1 hour following embolization): significantly increased the P50

Compound: O=C(C=Cc1ccc(O)c(O)c1)OC1CC(O)(C(=O)O)CC(O)C1O (stereo not drawn) [CGA, 3-[[3-(3,4-Dihydroxyphenyl)-1-oxo-2-propenyl]oxy] 1,4,5-trihydroxycyclohexanecarboxylic acid]
- P50 ([2]; CGA 50 mg/kg IV, 5 minutes following embolization, behavior 24 hours): 3.61 ± 0.52 mg
- P50 ([2]; CGA 50 mg/kg single bolus, 1 hour post-embolization): 2.57 ± 0.28 mg
- P50 ([2]; CGA 50 mg/kg, 3 hours following embolization): 1.22 ± 0.24 mg

Compound: CC(=O)[C@H]1CC[C@H]2[C@@H]3CC[C@@H]4C[C@H](OC(=O)CCC(=O)O)CC[C@]4(C)[C@H]3CC[C@]12C [ABHS, 3-alpha-ol-5-beta-pregnan-20-one hemisuccinate]
- P50 (duration of ischemia associated with 50% probability of permanent paraplegia) [3, 4]: 49.18 ± 10.44 min
- increase of P50 over control [3, 4]: 110%
- tolerance to ischemia ([3]; ABHS administered 30 min following the start of occlusion): increased the tolerance to ischemia
- persistence of effect ([3]; ABHS injected 5 min following the start of ischemia and again 24 h after ischemia): persistent effect of the drug at 48 h
- Observation ([2]; ABHS 25 mg/kg, 5 min following embolization): Sedation
- Observation [2, 5]: Sedation
- P50 [2, 5]: 1.05 ± 0.24 mg
- Observation [2, 6]: Sedation
- P50 [2, 6]: 1.42 ± 0.35 mg
- effect on therapeutic window for tPA ([2]; ABHS with tPA (FIG. 7)): increases the therapeutic window for tPA
- duration of sedation (loss of righting reflex) after drug injection ([2]; IV ABHS administration to rabbits): 2 to 3 h

Reference: US20070166299A1, “TREATMENT FOR EMBOLIC STROKE” (priority 2005, published 2007)
